According to US8440646B1 (priority 2006, dated 2013):
Values after ≈ are worked out from the molar mass of the structure shown. Where two headings read alike, the source gives them in different places.

Columns and labels:
S. pneumoniae 157E [1] = system: S. pneumoniae 157E; design: species or system mice; conditions: mouse, in vivo
S. pneumoniae 700905 [2] = system: S. pneumoniae 700905; design: species or system mice; conditions: mouse, in vivo
B. anthracis Sterne = test: microbe, parasite or virus in culture; assay type: cell-based; conditions: Bacillus anthracis
B. anthracis Ame = test: microbe, parasite or virus in culture; assay type: cell-based; conditions: Bacillus anthracis
B. anthracis V770 = test: microbe, parasite or virus in culture; assay type: cell-based; conditions: Bacillus anthracis
B. anthracis Vollum1B = test: microbe, parasite or virus in culture; assay type: cell-based; conditions: Bacillus anthracis
B. cereus 98/2658 = test: microbe, parasite or virus in culture; assay type: cell-based; conditions: Bacillus cereus
B. cereus 97/4144 = test: microbe, parasite or virus in culture; assay type: cell-based; conditions: Bacillus cereus
B. cereus 98/2620 = test: microbe, parasite or virus in culture; assay type: cell-based; conditions: Bacillus cereus
B. cereus 95/3032 = test: microbe, parasite or virus in culture; assay type: cell-based; conditions: Bacillus cereus
S. pneumoniae 700905 [3] = test: microbe, parasite or virus in culture; assay type: cell-based; conditions: Streptococcus pneumoniae
S. aureus MRSA5 = test: microbe, parasite or virus in culture; assay type: cell-based; conditions: Staphylococcus aureus
COS-1 = conditions: African green monkey
E. faecalis 29212 = test: microbe, parasite or virus in culture; assay type: cell-based; conditions: Enterococcus faecalis
S. pneumoniae PBS1339 = system: S. pneumoniae PBS1339; design: species or system mice; conditions: mouse, in vivo
CHO-K1 = conditions: Chinese hamster
E. faecium 494 = test: microbe, parasite or virus in culture; assay type: cell-based; conditions: Enterococcus faecium
[4] = system: Peptidoglycan synthesis of S. aureus RN450; test: microbe, parasite or virus in culture; assay type: cell-based; conditions: Staphylococcus aureus; for IC50: read-out: Peptidoglycan synthesis IC50; for IC90: read-out: Peptidoglycan synthesis IC90
protein synthesis = conditions: cited from earlier work
16S rRNA = conditions: cited from earlier work
[5] = system: Protein synthesis of S. aureus RN450; test: microbe, parasite or virus in culture; assay type: cell-based; conditions: for IC50 / IC90: Staphylococcus aureus; for IC50: read-out: Protein synthesis IC50; for IC90: read-out: Protein synthesis IC90
S. aureus RN450 = test: microbe, parasite or virus in culture; assay type: cell-based; conditions: Staphylococcus aureus
S. pneumoniae 157E [6] = test: microbe, parasite or virus in culture; assay type: cell-based; conditions: Streptococcus pneumoniae
S. aureus RN4250 = test: microbe, parasite or virus in culture; assay type: cell-based; conditions: for MIC: Staphylococcus aureus, RN4250

In the case of `O=C(O)c1cn(C2CC2)c2cc(N3CCNCC3)c(F)cc2c1=O` [Ciprofloxacin, reference compound], the PD50 (S. pneumoniae 157E [1]; iv) is reported as greater than 50 mg/kg, the PD50 (S. pneumoniae 700905 [2]; po) is reported as greater than 50 mg/kg and the MIC (B. anthracis Sterne) is reported as 0.25 µg/mL (≈ 0.754 µM). For the same compound, the MIC (B. anthracis Ame) was 0.25 µg/mL (≈ 0.754 µM), the MIC (B. anthracis V770) was 0.12 µg/mL (≈ 0.362 µM) and the MIC (B. anthracis Vollum1B) was 0.25 µg/mL (≈ 0.754 µM).
`CCC[C@@H]1C[C@@H](C(=O)N[C@@H]([C@H]2O[C@H](SC)[C@H](O)[C@@H](O)[C@H]2O)[C@H](C)Cl)N(C)C1` [Clindamycin] gave an MIC (B. cereus 98/2658) of 0.5 µg/mL (≈ 1.18 µM), an MIC (B. cereus 97/4144) of 0.5 µg/mL (≈ 1.18 µM) and an MIC (B. cereus 98/2620) of 0.25 µg/mL (≈ 0.588 µM). It also gave an MIC (B. cereus 95/3032) of 0.5 µg/mL (≈ 1.18 µM).
For `CN(C)c1cc(CN2CCC(F)(F)CC2)c(O)c2c1C[C@H]1C[C@H]3[C@H](N(C)C)C(O)=C(C(N)=O)C(=O)[C@@]3(O)C(O)=C1C2=O` [Compound H], the “IV and PO efficacy in words” value (S. pneumoniae 157E [1]) was “exhibits IV and PO efficacy”, the PD50 (S. pneumoniae 157E [1]; iv) was 1.1 mg/kg and the PD50 (S. pneumoniae 157E [1]; po) was 5 mg/kg. For the same compound, the “oral activity in words” value (S. pneumoniae 157E [1]; po) was “exhibited oral activity”, the PD50 (S. pneumoniae 700905 [2]; iv) was 2.2 mg/kg and the PD50 (S. pneumoniae 700905 [2]; po) was 12.7 mg/kg. It also gave an MIC (S. pneumoniae 700905 [3]) of 0.06 µg/mL (≈ 0.102 µM), an MIC (S. aureus MRSA5) of 0.35 µg/mL (≈ 0.593 µM) and a Tox50 (COS-1) greater than 100 µg/mL. For the same compound, the MIC (E. faecalis 29212) was 0.5 µg/mL (≈ 0.847 µM), the MIC (B. anthracis Sterne) was less than 0.03 µg/mL and the MIC (B. anthracis Ame) was less than 0.03 µg/mL. For the same compound, the MIC (B. anthracis V770) was less than 0.03 µg/mL, the MIC (B. anthracis Vollum1B) was less than 0.03 µg/mL and the “efficacy in model of lung infection in words” value (S. pneumoniae PBS1339) was “efficacious”. The PD50 (S. pneumoniae PBS1339; iv) was less than 5.0 mg/kg, the PD50 (S. pneumoniae PBS1339; po) was 3.6 mg/kg and the Tox50 (CHO-K1) was greater than 100 µg/mL. The MIC (E. faecium 494) was 0.5 µg/mL (≈ 0.847 µM).
For `CC[C@H]1OC(=O)[C@H](C)[C@@H](O[C@H]2C[C@@](C)(OC)[C@@H](O)[C@H](C)O2)[C@H](C)[C@@H](O[C@@H]2O[C@H](C)C[C@H](N(C)C)[C@H]2O)[C@](C)(O)C[C@@H](C)C(=O)[C@H](C)[C@@H](O)[C@]1(C)O` [Erythromycin], the MIC (B. cereus 98/2658) was 1 µg/mL (≈ 1.36 µM), the MIC (B. cereus 97/4144) was 0.125 µg/mL (≈ 0.17 µM) and the MIC (B. cereus 98/2620) was 0.06 µg/mL (≈ 0.0818 µM). For the same compound, the MIC (B. cereus 95/3032) was 0.125 µg/mL (≈ 0.17 µM).
Compound `CN(C)c1ccc(O)c2c1C[C@H]1C[C@H]3[C@H](N(C)C)C(O)=C(C(N)=O)C(=O)[C@@]3(O)C(O)=C1C2=O` [Minocycline, reference compound] has a PD50 (S. pneumoniae 157E [1]; iv) of 0.53 mg/kg, a PD50 (S. pneumoniae 157E [1]; po) of 1.5 mg/kg and an IC50 [4] of 4.6 µg/mL (≈ 10.1 µM). It also gave an IC90 [4] of 20.9 µg/mL (≈ 45.7 µM), an MIC (B. cereus 98/2658) of no more than 0.06 µg/mL and a PD50 (S. pneumoniae 700905 [2]; iv) greater than 50 mg/kg. The PD50 (S. pneumoniae 700905 [2]; po) was greater than 50 mg/kg, the “inhibition of protein synthesis in words” value (protein synthesis) was “potent inhibitors of protein synthesis” and the “effect on reactivity of nucleotides within the 16S rRNA (chemical footprint)” value (shortened to “effect on reactivity”) (16S rRNA) was “affect the reactivity of nucleotides”. The MIC (S. pneumoniae 700905 [3]) was 8 µg/mL (≈ 17.5 µM), the MIC (S. aureus MRSA5) was 2 µg/mL (≈ 4.37 µM) and the IC50 [5] was less than 0.03 µg/mL. The IC90 [5] was 0.1 µg/mL (≈ 0.219 µM), the MIC (B. cereus 97/4144) was 0.5 µg/mL (≈ 1.09 µM) and the MIC (S. aureus RN450) was 0.25 µg/mL (≈ 0.546 µM). It also gave an MIC (B. cereus 98/2620) of 0.5 µg/mL (≈ 1.09 µM), an MIC (E. faecalis 29212) of 4 µg/mL (≈ 8.74 µM) and an MIC (S. pneumoniae 157E [6]) of 0.06 µg/mL (≈ 0.131 µM). For the same compound, the susceptibility in words (S. aureus RN4250) was “susceptible”, the MIC (S. aureus RN4250) was 0.5 µg/mL (≈ 1.09 µM) and the PD50 (S. pneumoniae PBS1339; iv) was 4.5 mg/kg. The PD50 (S. pneumoniae PBS1339; po) was 3.6 mg/kg, the MIC (B. cereus 95/3032) was no more than 0.06 µg/mL and the MIC (E. faecium 494) was 16 µg/mL (≈ 35 µM).
Work on `CN(C)C1C(O)=C(C(N)=O)C(=O)C2(O)C(O)=C3C(=O)c4c(O)cccc4C(C)(O)C3CC12` (centres unmarked) [Tetracycline, reference compound] yielded an IC50 [4] greater than 32 µg/mL, an IC90 [4] greater than 32 µg/mL and an MIC (B. cereus 98/2658) of no more than 0.06 µg/mL. The “inhibition of protein synthesis in words” value (protein synthesis) was “potent inhibitors of protein synthesis”, the “effect on reactivity” value (16S rRNA) was “affect the reactivity of nucleotides” and the MIC (S. pneumoniae 700905 [3]) was 32 µg/mL (≈ 72 µM). It also gave an MIC (S. aureus MRSA5) of 32 µg/mL (≈ 72 µM), an IC50 [5] of less than 0.03 µg/mL and an IC90 [5] of 0.11 µg/mL (≈ 0.248 µM). The MIC (B. cereus 97/4144) was 64 µg/mL (≈ 144 µM), the MIC (S. aureus RN450) was 0.06 µg/mL (≈ 0.135 µM) and the MIC (B. cereus 98/2620) was 32 µg/mL (≈ 72 µM). For the same compound, the MIC (E. faecalis 29212) was 16 µg/mL (≈ 36 µM), the MIC (S. pneumoniae 157E [6]) was 0.06 µg/mL (≈ 0.135 µM) and the susceptibility in words (S. aureus RN4250) was “resistant”. The MIC (S. aureus RN4250) was 64 µg/mL (≈ 144 µM), the MIC (B. cereus 95/3032) was no more than 0.06 µg/mL and the MIC (E. faecium 494) was 64 µg/mL (≈ 144 µM).
For `CN(C)c1cc(NC(=O)CNC(C)(C)C)c(O)c2c1C[C@H]1C[C@H]3[C@H](N(C)C)C(O)=C(C(N)=O)C(=O)[C@@]3(O)C(O)=C1C2=O` [Tigecycline, reference compound], the IC50 [4] is listed as greater than 32 µg/mL, the IC90 [4] is listed as greater than 32 µg/mL and the “effect on reactivity” value (16S rRNA) is listed as “chemical footprint similar to that of tetracycline”. For the same compound, the “macromolecular synthesis profile in words” value [5] was “profile similar to class I compounds”, the IC50 [5] was 0.12 µg/mL (≈ 0.205 µM) and the IC90 [5] was 0.68 µg/mL (≈ 1.16 µM). The MIC (S. aureus RN450) was 2 µg/mL (≈ 3.41 µM).
In the case of `CN[C@H](CC(C)C)C(=O)N[C@H]1C(=O)N[C@@H](CC(N)=O)C(=O)N[C@H]2C(=O)N[C@H]3C(=O)N[C@H](C(=O)N[C@H](C(=O)O)c4cc(O)cc(O)c4-c4cc3ccc4O)[C@H](O)c3ccc(c(Cl)c3)Oc3cc2cc(c3O[C@@H]2O[C@H](CO)[C@@H](O)[C@H](O)[C@H]2O[C@H]2C[C@](C)(N)[C@H](O)[C@H](C)O2)Oc2ccc(cc2Cl)[C@H]1O` [Vancomycin], the MIC (B. cereus 98/2658) is reported as 2 µg/mL (≈ 1.38 µM), the MIC (B. cereus 97/4144) is reported as 1 µg/mL (≈ 0.69 µM) and the MIC (B. cereus 98/2620) is reported as 1 µg/mL (≈ 0.69 µM). For the same compound, the MIC (B. cereus 95/3032) was 1 µg/mL (≈ 0.69 µM).
